From ChEMBL document CHEMBL5385961, “In vitro and in vivo evaluation of novel chromeno[2,3-d]pyrimidinones as therapeutic agents for triple negative breast cancer” (RSC Med Chem, 2024) come the findings set out here.

One series relates to MDA-MB-231. In words: Cytotoxicity against human MDA-MB-231 cells assessed as cell viability at 10 uM incubated for 72 hrs by SRB assay relative to control. Type of series: functional. The following applies: read-out: Activity. For orientation: The SRB assay estimates cell density from bound dye.
Series [1] in a line: Toxicity in wild type C57BL/6J mouse assessed as effect on body temperature at 10 to 50 mg/kg, ip administered daily for 7 days. In kind it is organism-based. The following applies: in vivo, 168 h, dose 10-50 mg/kg, time 7 day.
The nature of series [2]: Toxicity in wild type C57BL/6J mouse assessed as transfer to reaction at 10 to 50 mg/kg, ip administered daily for 7 days and measured daily. In kind it is organism-based. The following applies: in vivo, 168 h, dose 10-50 mg/kg, time 7 day.
The nature of series [3]: Toxicity in wild type C57BL/6J mouse assessed as effect on body curvature at 10 to 50 mg/kg, ip administered daily for 7 days and measured daily. Type of series: organism-based. To be noted: in vivo, 168 h, dose 10-50 mg/kg, time 7 day.
Series [4] concerns Hs-578T. In words: Cytotoxicity against human Hs-578T cells assessed as cell viability at 10 uM incubated for 72 hrs by SRB assay relative to control. The following applies: read-out: Activity. In kind it is functional.
For series [5], the system named is Hs-578T. The series can be described thus: Antitumor activity against human Hs-578T cells implanted in chick eggs assessed as tumor growth regression at 2 times IC50 administered starting from day 13 and measured 17 days post embryo development by stereomicroscopic analysis. Type of series: functional, cell-based. To be noted: time 5.0 day.
Series [6] has as its system Hs-578T. The series can be described thus: Cytotoxicity against human Hs-578T cells assessed as reduction in cell proliferation at IC50 measured after 24 hrs by BrdU incorporation assay relative to control. In kind it is functional. Further details: scale not given: the % may be the effect or the level left. Background: Uptake of a labelled nucleoside into DNA is a usual measure of proliferation.

The nature of series [7]: Toxicity in wild type C57BL/6J mouse assessed as effect on vertical activity at 10 to 50 mg/kg, ip administered daily for 7 days and measured daily. In kind it is organism-based. To be noted: in vivo, 168 h, dose 10-50 mg/kg, time 7 day.
Series [8] relates to Hs-578T. In words: Induction of apoptosis in human Hs-578T cells assessed as increase in caspase-8 protein expression at IC50 measured after 48 hrs by Western blot analysis. Type of series: functional, cell-based. (A western blot detects proteins with antibodies after separation by electrophoresis.)
The nature of series [9]: Toxicity in wild type Caenorhabditis elegans N2 assessed as drug tolerance at 0.0001 to 50 uM. The following applies: dose 0.0001-50 µM.
The subject of series [10] is Hs-578T. The series can be described thus: Cytotoxicity against human Hs-578T cells assessed as reduction in cell proliferation at IC50 measured after 48 hrs by BrdU incorporation assay relative to control. Also on record: scale not given: the % may be the effect or the level left. Type of series: functional.
Series [11] concerns Hs-578T. In words: Antitumor activity against human Hs-578T cells implanted in chick eggs assessed as regression in tumors' perimeter at 2 times IC50 administered starting from day 13 and measured 17 days post embryo development by stereomicroscopic analysis relative to control. The following applies: time 5 day. In kind it is functional.
The nature of series [12]: Toxicity in wild type C57BL/6J mouse assessed as piloerection at 10 to 50 mg/kg, ip administered daily for 7 days and measured daily. In kind it is organism-based. To be noted: in vivo, 168 h, dose 10-50 mg/kg, time 7 day.
In series [13] the test system is Hs-578T. The series can be described thus: Induction of apoptosis in human Hs-578T cells assessed as increase in caspase-8 protein expression at IC50 measured after 24 hrs by Western blot analysis. In kind it is functional, cell-based.

Calls of active or inactive are those of the source. The rule behind the calls is not given here.

For the compound `Brc1ccc2c(c1)-c1cc(-c3ccccc3)nc3c1C(N=CN3c1ccccc1)O2` (centres undefined), the viability at 10 µM in the series with MDA-MB-231 was determined as 49.9%; in the series on Hs-578T [4], 50.4%. In addition, the Activity entry in [1] is reported as “Non-Toxic”; in [2], “Non-Toxic”; in series [3] it was “Non-Toxic”; with Hs-578T [6], around 30%; in series [7] it was “Non-Toxic”; in series [9], “Non-Toxic”. Also, the Activity is on record as 35% in the series on Hs-578T [10], 12.4% with Hs-578T [11] and “Non-Toxic” in series [12]. The outcome with Hs-578T [5] and with Hs-578T [13] was Active. Further, the result with Hs-578T [8] was inactive.
